# Experiments:
# Plasmodium falciparum = test: Antiplasmodial activity against chloroquine-resistant Plasmodium falciparum W2; type: functional, organism-based
# Plasmodium berghei [1] = test: (§1) Antimalarial activity after 10 days against Plasmodium berghei ANKA infected Anopheles stephensi at 10 uM/kg; type: functional
# Plasmodium berghei [2] = test: as §1; type: functional; remark: listed apart in the source
# Plasmodium berghei [3] = test: (§2) Antimalarial activity after 10 days against Plasmodium berghei ANKA infected Anopheles stephensi at 50 uM/kg; type: functional
# Plasmodium berghei [4] = test: as §2; type: functional; remark: listed apart in the source
Compound,IC50 (Plasmodium falciparum) [µM],Activity (Plasmodium berghei [1]) [%],Activity (Plasmodium berghei [2]),Activity (Plasmodium berghei [3]),Activity (Plasmodium berghei [4]) [%]
COc1cc(NC(C)CCCN2C(=O)[C@H](C)NC2(C)C)c2ncccc2c1 (stereo partly drawn),> 50,–,–,–,–
COc1cc(NC(C)CCCN2C(=O)CN(C(=O)CN)C2(C)C)c2ncccc2c1 (stereo not drawn),–,42,1.08,0.79,–
COc1cc(NC(C)CCCN2C(=O)CN(C(=O)[C@@H](N)C(C)C)C2(C)C)c2ncccc2c1 (stereo partly drawn),7.9,–,–,–,–
COc1cc(NC(C)CCCN2C(=O)[C@H](C)N(C(=O)CN)C2(C)C)c2ncccc2c1 (stereo partly drawn),5.5,–,–,–,–
COc1cc(NC(C)CCCN2C(=O)CN(C(=O)[C@@H](N)CCSC)C2(C)C)c2ncccc2c1 (stereo partly drawn),12,–,–,–,–
COc1cc(NC(C)CCCN2C(=O)CN(C(=O)[C@@H](N)CC(C)C)C2(C)C)c2ncccc2c1 (stereo partly drawn),6.3,–,–,–,–
COc1cc(NC(C)CCCN2C(=O)CN(C(=O)[C@H](C)N)C2(C)C)c2ncccc2c1 (stereo partly drawn),8,67.9,9.71,1.34,40.1
COc1cc(NC(C)CCCN2C(=O)[C@H](CCSC)N(C(=O)CN)C2(C)C)c2ncccc2c1 (stereo partly drawn),3.3,–,–,–,–
COc1cc(NC(C)CCCN)c2ncccc2c1 (stereo not drawn) [PRIMAQUINE],–,41.7,2,0.95,42.9
